According to patent US9243225B2, “Methods of obtaining cell populations enriched with desired cells” (HADASIT MEDICAL RESEARCH SERVICES & DEVELOPMENT LIMITED, priority 2010, dated 2016):

Columns and labels:
[1] = tested on: tumor-forming cells in transplanted hESC-derived cell preparations; assay: Transplantation of paclitaxel-treated differentiated hESC into 6-OH dopamine-lesioned (Parkinsonian) rats; assay type: in vivo, rat
Procedure: 6-Hydroxydopamine (8 μg/rat) was stereotaxically injected (in a 4 μL solution) into the right substantia nigra of male Sprague-Dawley rats weighing 250-280 g; coordinates of injection: P=4.8, L=1.7, H=−8.6 from bregma. Fourteen days after 6-hydroxydopamine injection, rats were selected for transplantation if they had >350 rotations per hour after s.c. injection of apomorphine ([…]) (apomorphine being injected after 14 days) and, if 2 days later (after apomorphine injection) they also had >360 (mean 520±38) rotations per hour after i.p. injection of D-amphetamine (4 mg/kg).
Two to five days later (after the D-amphetamine injection), differentiated hESC that were induced according to the above specified protocols, either paclitaxel-treated or control-treated (DMSO), were detached with collagenase and were transplanted, 400,000 cells in 12 μL/animal along two tracts per striatum (coordinates: antero-medial tract, A=1, L=2, H=−7.5 to −4; posterio-lateral tract, A−P=0, L=3.5, H=−7.5 to −4.5). All rats received daily i.p. injections of 10 mg cyclosporine A per kg (Sandimmune; Novartis, Basel, Switzerland).
Rats were euthanized by overdose of pentobarbital and perfused with 4% paraformaldehyde saline. Serial 8 μm coronal frozen sections were prepared. […]

[2] = tested on: hES1-derived mixed culture of neurons, neural precursors/progenitors (NPs) and undifferentiated cells; assay: Paclitaxel treatment of hESC-derived differentiating neural cultures (morphology, immunostaining); assay type: cell-based, human
Procedure: hES1 colonies grown on HFF feeders in DMEM supplemented with knockout (KO) serum replacement, PenStrep, non-essential amino-acids and glutamine (Invitrogen, USA), were enzymatically detached by collagenase. Intact colonies were transferred to non-adhesive culture plates to form neurospheres in NSC medium (DMEM-F12 medium, N2, B27, PenStrep and Glutamine) supplemented with noggin (Peprotech Asia, Rehovot, Israel) and 20 ng/ml bFGF. Spheres were grown for 3-5 weeks in suspension, collected, triturated and plated on 10 μg laminin/poly-D-lysine-coated coverslips in NSC medium supplemented with FGF8 and SHH for 6-8-days. At this stage, cells were treated with the appropriate concentrations of paclitaxel for 18-24 hours. Paclitaxel was then removed and cells were allowed to recuperate and continue with the differentiation process for additional 6-8 days in NSC medium with BDNF, GDNF, TGFβ3, NT4, cAMP, ascorbic acid.
Alternatively, cells at the end of the differentiation process—the cells are grown as spheres in suspension for 3-5 weeks and 2 more weeks as adherent culture: 1 week FGF8/SHH+1 week factors) are subjected to paclitaxel treatment.
Paclitaxel was added to cells at 2 ranges of concentrations of 0.2-20 nM and 100-500 nM. Cells are incubated at 37° C., in 5% CO2, 5% O2. Incubation times vary between 2 hours and 48 hours.

CC(=O)O[C@H]1C(=O)[C@@]2(C)[C@H]([C@H](OC(=O)c3ccccc3)[C@]3(O)C[C@H](OC(=O)[C@H](O)[C@@H](NC(=O)c4ccccc4)c4ccccc4)C(C)=C1C3(C)C)[C@]1(OC(C)=O)CO[C@@H]1C[C@@H]2O [paclitaxel]
tumor development after transplantation of treated cells ([1]; cell preparations treated with 20-50 nM paclitaxel, 9 animals, 5-8 weeks post transplantation, all 6 controls with untreated cells developed large tumors): none developed tumors | tyrosine hydroxylase (dopaminergic marker) expression of grafted paclitaxel-treated cells ([1]; grafted cells marked by human nuclear antigen in rat striatum, FIGS. 4A-4C): express tyrosine hydroxylase | effect on mature cells with typical neuronal morphology ([2]; after treatment with paclitaxel, FIG. 1C): unaffected by the treatment | effect on undifferentiated cells and early neural progenitors that form rosette structures ([2]; after treatment with paclitaxel, FIGS. 1A-1C): undergo apoptosis | β-III tubulin expressing cells (neuronal marker) in culture ([2]; mixed culture of neurons and NPs after paclitaxel treatment, FIG. 2C): enriched for β-III tubulin expressing cells | nestin-positive cells (NP marker) in culture ([2]; mixed culture of neurons and NPs after paclitaxel treatment, FIG. 2D): reduced number of nestin-positive cells
